This passage reports MIC results from patent US10583074B2, “Oral care compositions” (priority 2017, dated 2020).

Assay in all cases: Minimum inhibitory concentration
Holding throughout (type): cell-based

The test system of assay [1] is Streptococcus oralis ATCC 35037. The source says: (§1) That is, the amount in parts-per-million (ppm) required to inhibit the growth of common bacterial pathogens.
In assay [2] the test system is Lactobacillus casei ATCC 334. Particulars: Lacticaseibacillus casei.
Source text: as §1

The test system of assay [3] is Actinomyces viscosus ATCC 43137.
Source text: as §1

The mark [4] stands for this setting: ATCC35037, Streptococcus oralis ATCC 35037, solvent ethanol or DMSO per sample, read-out: minimum inhibitory concentration.
The mark [5] stands for this setting: ATCC334, Lactobacillus casei ATCC 334, solvent ethanol or DMSO per sample, read-out: minimum inhibitory concentration.
Where [6] appears, read: ATCC43137, Actinomyces viscosus ATCC 43137, solvent ethanol or DMSO per sample, read-out: minimum inhibitory concentration.

In brackets after ≈: the same amount, converted by molar mass. Where two headings read alike, the source gives them in different places.

As for `Oc1cc(Cl)ccc1Oc1ccc(Cl)cc1Cl` [Triclosan], the MIC in assay [1] (Streptococcus oralis, ATCC35037, read-out: minimum inhibitory concentration) stood at 7.8 µg/mL (≈ 26.9 µM); in assay [2] (ATCC334, read-out: minimum inhibitory concentration) it was 7.8 µg/mL (≈ 26.9 µM); in assay [3] (Actinomyces viscosus, ATCC43137, read-out: minimum inhibitory concentration), 3.9 µg/mL (≈ 13.5 µM).

Turning to `C=CCc1ccc(O)c(OC)c1` [Eugenol, 4-allyl-2-methoxyphenol], the MIC in assay [1] (setting [4]), in assay [2] (setting [5]) and in assay [3] (setting [6]) was 250 µg/mL (≈ 1520 µM) in each case.

As for `CC1(C)CC[C@]2(C(=O)O)CC[C@]3(C)C(=CC[C@@H]4[C@@]5(C)CC[C@H](O)C(C)(C)[C@@H]5CC[C@]43C)[C@@H]2C1` [Oleanic Acid, 3β-hydroxy-olea-12-en-28-oic], the MIC in assay [1] (setting [4]) turned out to be 7.8 µg/mL (≈ 17.1 µM); in assay [2] (setting [5]) it was 7.8 µg/mL (≈ 17.1 µM); in assay [3] (setting [6]), 15.6 µg/mL (≈ 34.2 µM).
